{
  "source": "patent US11932877B2",
  "about": "“Human fibrolamellar hepatocellular carcinomas (hFL-HCCs)” (priority 2015, dated 2024)",
  "key": {"[1]": {"tested_on": "hFL-HCC cells of TU-2010", "assay": "Cell proliferation assay (WST-1) on monolayer cultures of hFL-HCC cells", "format": "cell-based, human", "protocol": "For cell proliferation assays, 3×10^4 hFL-HCC cells of TU-2010 were depleted of host mesenchymal cells by magnetic sorting of xenotransplantable tumor cell suspension and then were seeded into each well of a 96-well plate and cultured overnight with Kubota's Medium+5% FBS. […] Cell proliferation was evaluated using the Cell Proliferation Reagent WST-1 (Roche Applied Science, Mannheim, Germany). After incubation at 37° C. for 2 hours, the absorbance at 450 nm was measured."}, "[2]": {"tested_on": "hFL-HCC cells of TU-2010", "assay": "Spheroid formation assay", "format": "cell-based, human", "details": "spheroids in serum-free Kubota's Medium, low attachment plates", "protocol": "For secondary spheroid formation assays, the 1st spheroids were collected, subsequently dissociated with NeuroCult Chemical Dissociation Kit ([…] Technologies). Cell suspension was centrifuged at 700 rpm 10 min and resuspended with KM. After 2 weeks, the number of spheroids (100 μm>) were counted."}, "[3]": {"tested_on": "hFL-HCC", "assay": "Treatment of the hFL-HCC patient from whom TU-2010 was derived", "format": "in vivo, human", "details": "for clinical response of the patient's tumor: one patient, metastatic hFL-HCC; for disease course under treatment / tolerability in the patient: Paclitaxel and thalidomide given together, chosen from sensitivity studies"}},
  "note": "“Also recorded” adds a separate entry of the source.",
  "data": [
    {"compound": "O=C(CCCCCCC(=O)NO)NO", "note": "[SBHA, suberic bis-hydroxamic acid]", "values": [
      {"measurement": "inhibitory effect on hFL-HCC cell survival and growth", "setting": "[1]; 10 μM and 20 μM, drug added for 3 days", "value": "strong inhibitory effects"},
      {"measurement": "inhibition of hFL-HCC cell growth", "setting": "[1]; 10 μM and 50 μM", "value": "strongly inhibited"},
      {"measurement": "suppression of hFL-HCC survival and growth in spheroid cultures compared with monolayer cultures", "setting": "[2]", "value": "even more sensitive to inhibition"}
    ]},
    {"compound": "bevacizumab", "values": [
      {"measurement": "clinical response of the patient's tumor", "setting": "[3]", "value": "limited or no response"}
    ]},
    {"compound": "CNC(=O)c1cc(Oc2ccc(NC(=O)Nc3ccc(Cl)c(C(F)(F)F)c3)cc2)ccn1", "note": "[sorafenib]", "values": [
      {"measurement": "clinical response of the patient's tumor", "setting": "[3]", "value": "limited or no response"}
    ]},
    {"compound": "O=c1[nH]cc(F)c(=O)[nH]1", "note": "[5-FU]", "values": [
      {"measurement": "clinical response of the patient's tumor", "setting": "[3]", "value": "limited or no response"}
    ]},
    {"compound": "O=C(CCCCCCC(=O)Nc1ccccc1)NO", "note": "[SAHA, suberoylanilide hydroxamic acid]", "values": [
      {"measurement": "suppression of hFL-HCC survival and growth in spheroid cultures compared with monolayer cultures", "setting": "[2]", "value": "even more sensitive to inhibition"}
    ]},
    {"compound": "Nc1ccn([C@@H]2O[C@H](CO)[C@@H](O)C2(F)F)c(=O)n1", "note": "[gemcitabine]", "values": [
      {"measurement": "clinical response of the patient's tumor", "setting": "[3]", "value": "limited or no response"}
    ]},
    {"compound": "COc1cccc2c1C(=O)c1c(O)c3c(c(O)c1C2=O)C[C@@](O)(C(=O)CO)C[C@@H]3O[C@H]1C[C@H](N)[C@H](O)[C@H](C)O1", "note": "[doxorubicin]", "values": [
      {"measurement": "clinical response of the patient's tumor", "setting": "[3]", "value": "limited or no response"}
    ]},
    {"compound": "O=C1CCC(N2C(=O)c3ccccc3C2=O)C(=O)N1", "note": "(centres unmarked) [thalidomide]", "values": [
      {"measurement": "disease course under treatment", "setting": "[3]", "value": "continued disease progression"},
      {"measurement": "tolerability in the patient", "setting": "[3]", "value": "poorly tolerated"},
      {"measurement": "clinical response of the patient's tumor", "setting": "[3]", "value": "limited or no response"}
    ]},
    {"compound": "N.N.[Cl][Pt][Cl]", "note": "[cisplatinum]", "values": [
      {"measurement": "clinical response of the patient's tumor", "setting": "[3]", "value": "limited or no response"}
    ]},
    {"compound": "CS(=O)(=O)c1ccc(C(=O)Nc2ccc(Cl)c(-c3ccccn3)c2)c(Cl)c1", "note": "[GDC-0449, Vismodegib]", "values": [
      {"measurement": "suppression of survival and proliferation (growth) of hFL-HCC cells", "setting": "[1]; 4 μM and especially 20 μM, drug added for 3 days", "value": "strongly inhibited; also recorded: suppress survival and proliferation"},
      {"measurement": "suppression of hFL-HCC survival and growth in spheroid cultures compared with monolayer cultures", "setting": "[2]", "value": "even more sensitive to inhibition; also recorded: far more effective"}
    ]},
    {"compound": "CC(=O)O[C@H]1C(=O)[C@@]2(C)[C@H]([C@H](OC(=O)c3ccccc3)[C@]3(O)C[C@H](OC(=O)[C@H](O)[C@@H](NC(=O)c4ccccc4)c4ccccc4)C(C)=C1C3(C)C)[C@]1(OC(C)=O)CO[C@@H]1C[C@@H]2O", "note": "[Paclitaxel]", "values": [
      {"measurement": "disease course under treatment", "setting": "[3]", "value": "continued disease progression"},
      {"measurement": "tolerability in the patient", "setting": "[3]", "value": "poorly tolerated"}
    ]}
  ]
}
